Data from patent EP1140925B1, “(3,4 DIHYDRO-2H-BENZO[1,4] OXAZINYL-METHYL)- 3-(1H-INDOL-3- YL)-ALKYL -AMINES” (Wyeth, priority 1999, dated 2000).
Like-named read-outs stand apart in the source and are kept apart here.

Tests used:
serotonin transporter = target: T1, serotonin transporter (Rattus norvegicus, UniProt P31652); assay: Serotonin transporter affinity, 3H-paroxetine binding to frontal cortical membranes; parameters: species or system Sprague-Dawley rats; details: 3H-paroxetine 0.1 nM, head also allows % Inh. @.1 µM
T1 construct: frontal cortical membranes prepared from male Sprague-Dawley rats; from tissue; host or cells: frontal cortex membranes of male Sprague-Dawley rats
T1 sequence (P31652 whole entry): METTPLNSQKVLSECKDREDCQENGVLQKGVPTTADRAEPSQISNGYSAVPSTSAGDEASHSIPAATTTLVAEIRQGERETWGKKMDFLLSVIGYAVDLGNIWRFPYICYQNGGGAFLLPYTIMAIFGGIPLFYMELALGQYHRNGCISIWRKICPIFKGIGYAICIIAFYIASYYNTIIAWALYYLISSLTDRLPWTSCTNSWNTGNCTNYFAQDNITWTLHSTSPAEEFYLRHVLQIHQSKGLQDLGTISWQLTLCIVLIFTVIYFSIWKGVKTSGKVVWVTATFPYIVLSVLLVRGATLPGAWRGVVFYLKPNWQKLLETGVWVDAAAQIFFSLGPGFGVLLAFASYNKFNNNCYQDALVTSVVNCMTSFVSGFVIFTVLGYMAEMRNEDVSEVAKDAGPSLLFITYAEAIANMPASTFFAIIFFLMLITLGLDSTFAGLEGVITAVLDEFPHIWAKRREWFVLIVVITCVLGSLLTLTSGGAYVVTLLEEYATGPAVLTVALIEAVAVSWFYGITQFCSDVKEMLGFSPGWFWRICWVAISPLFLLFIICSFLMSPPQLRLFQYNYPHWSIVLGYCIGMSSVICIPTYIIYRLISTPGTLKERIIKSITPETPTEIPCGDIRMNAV
Procedure: Briefly, frontal cortical membranes prepared from male Sprague-Dawley rats were incubated with ^3H-paroxetine (0.1 nM) for 60 min at 25°C. All tubes also contained either vehicle, test compound (one to eight concentrations), or a saturating concentration of fluoxetine (10 µM) to define specific binding. All reactions were terminated by the addition of ice cold Tris buffer followed by rapid filtration using a Tom Tech filtration device to separate bound from free ^3H-paroxetine.

human 5-HT1A receptor = target: T2, human 5-HT1A receptor (Homo sapiens, UniProt P08908); assay: 5-HT1A receptor binding assay with [3H]8-OH-DPAT in CHO cell membranes; details: [3H]8-OH-DPAT 1.5 nM, membranes of CHO cells expressing human 5-HT1A receptor
T2 construct: expressed in transfected cells
T2 sequence (P08908 1-422): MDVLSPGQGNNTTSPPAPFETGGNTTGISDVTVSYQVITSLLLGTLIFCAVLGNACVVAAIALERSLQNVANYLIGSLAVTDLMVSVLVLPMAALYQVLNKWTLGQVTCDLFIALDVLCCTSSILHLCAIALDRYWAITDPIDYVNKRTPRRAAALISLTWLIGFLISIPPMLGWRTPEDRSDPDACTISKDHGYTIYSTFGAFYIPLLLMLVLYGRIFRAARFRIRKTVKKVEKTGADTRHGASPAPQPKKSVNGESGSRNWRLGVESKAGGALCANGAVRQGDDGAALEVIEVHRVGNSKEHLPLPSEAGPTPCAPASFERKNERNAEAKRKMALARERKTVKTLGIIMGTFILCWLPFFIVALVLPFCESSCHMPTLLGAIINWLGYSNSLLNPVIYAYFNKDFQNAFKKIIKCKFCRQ
Procedure: A stable Chinese hamster ovary cell line expressing the human 5-HT1A receptor subtype (5H-HT1A.CHO cells) was employed throughout this procedure. Cells were maintained in DMEM supplemented with 10% fetal calf serum, non-essential amino acids and penicillin/ streptomycin.
Cells were grown to 95-100% confluency as a monolayer before membranes were harvested for binding studies. Cells were gently scraped from the culture plates, transferred to centrifuge tubes, and washed twice by centrifugation (at 2000 rpm for 10 min., 4°C) in buffer (50 mM Tris; pH 7.5). The resulting pellets were aliquoted and stored at -80•C until needed. On the day of assay, the cells were thawed on ice, and resuspended in buffer. Studies were conducted using [^3H]8-OH-DPAT as the radioligand. The binding assay was performed in 96 well microtiter plates in a final total volume of 250 µL of buffer. […] Non-specific binding was determined in the presence of 10 µM 5HT. Saturation analysis was conducted by using [^3H]8-OH-DPAT at concentrations ranging from 0.3-30 nM. Following a 30 minute incubation at room temperature, the reaction was terminated by the addition of ice cold buffer and rapid filtration using a M-96 Brandel Cell Harvester through a GF/B filter presoaked for 30 minutes in 0.5% polyethyleneimine.

[1] = read-out: ST (Ki, nM, % Inh. @.1 µM)

Compound: Fc1ccc2[nH]cc(CCCNCC3CN(c4ccccc4)c4ccccc4O3)c2c1 (single isomer, unassigned; (+)) [Example 19]
- Ki (serotonin transporter; ST (Ki, nM, % Inh. @.1 µM)): 40 nM

Compound: Fc1ccc2[nH]cc(CCCNCC3CN(c4ccccc4)c4ccccc4O3)c2c1 (single isomer, unassigned; (-)) [Example 18]
- Ki (serotonin transporter; ST (Ki, nM, % Inh. @.1 µM)): 34 nM

Compound: c1ccc2c(c1)NCC(CNCCCc1c[nH]c3ccccc13)O2 (stereo not drawn) [Example 1]
- Ki (human 5-HT1A receptor): 0.0069 µM
- Ki (serotonin transporter; [1]): 79 nM

Compound: CN1CC(CNCCCc2c[nH]c3ccccc23)Oc2ccccc21 (stereo not drawn) [Example 2]
- Ki (human 5-HT1A receptor): 0.0059 µM
- Ki (serotonin transporter; ST (Ki, nM, % Inh. @.1 µM)): 112 nM

Compound: c1ccc(CN2CC(CNCCCc3c[nH]c4ccccc34)Oc3ccccc32)cc1 (stereo not drawn) [Example 3, (4-Benzyl-3,4-dihydro-2H-benzo[1,4]oxazin-2ylmethyl)-[3-(1H-indo-3-yl)-propyl]-amine]
- Ki (human 5-HT1A receptor): 0.0078 µM
- Ki (serotonin transporter; ST (Ki, nM, % Inh. @.1 µM)): 21 nM

Compound: CN1CC(CNCCCc2c[nH]c3ccc(F)cc23)Oc2ccccc21 (stereo not drawn) [Example 5, [3-(5-Fluoro-1H-indol-3-yl)-propyl]-(4-methyl-3,4-dihydro-2H-benzo[1,4]oxazin-2-yl-methyl)-amine]
- Ki (human 5-HT1A receptor): 0.0085 µM
- Ki (serotonin transporter; [1]): 5.7 nM

Compound: c1ccc(N2CC(CNCCCc3c[nH]c4ccccc34)Oc3ccccc32)cc1 (stereo not drawn) [Example 7, [3-(1H-Indol-3-yl)-propyl]-4-phenyl-3,(4-dihydro-2H-benzo[1,4]oxazin-2-yl-methyl)-amine]
- Ki (human 5-HT1A receptor): 0.0302 µM

Compound: CC(C)N1CC(CNCCCc2c[nH]c3ccc(F)cc23)Oc2ccccc21 (stereo not drawn) [Example 8, [3-(5-Fluoro-1H-indol-3-yl)-propyl]-(4-isopropyl-3,4-dihydro-2H-benzo[1,4]oxazin-2yl-methyl)-amine]
- Ki (human 5-HT1A receptor): 0.0028 µM
- Ki (serotonin transporter; [1]): 25 nM

Compound: CC(C)CN1CC(CNCCCc2c[nH]c3ccc(F)cc23)Oc2ccccc21 (stereo not drawn) [Example 10]
- Ki (human 5-HT1A receptor): 0.00815 µM
- Ki (serotonin transporter; ST (Ki, nM, % Inh. @.1 µM)): 85 nM

Compound: Fc1ccc2[nH]cc(CCCNCC3CN(c4ccccc4)c4ccccc4O3)c2c1 (stereo not drawn) [Example 11, [3-(5-Fluoro-1H-indol-3-yl)-propyl]-(4-phenyl-3,4-dihydro-2H-benzo[1,4]oxazin-2-yl-methyl)-amine]
- Ki (serotonin transporter; [1]): 43 nM

Compound: CCN1CC(CNCCCc2c[nH]c3ccc(F)cc23)Oc2ccccc21 (stereo not drawn) [Example 13, [3-(5-Fluoro-1H-indol-3-yl)-propyl]-(4-ethyl-3,4-dihydro-2H-benzo[1,4]oxazin-2-yl-methyl)-amine]
- Ki (human 5-HT1A receptor): 0.0153 µM
- Ki (serotonin transporter; [1]): 15 nM

Compound: CCCN1CC(CNCCCc2c[nH]c3ccc(F)cc23)Oc2ccccc21 (stereo not drawn) [Example 14, [3-(5-Fluoro-1H-indol-3-yl)-propyl]-(4-propyl-3,4-dihydro-2H-benzo[1,4]oxazin-2-yl-methyl)-amine]
- Ki (human 5-HT1A receptor): 0.0168 µM
- Ki (serotonin transporter; [1]): 26 nM

Compound: CN1CC(CNCCCc2c[nH]c3ccc(F)cc23)Oc2cc(Cl)ccc21 (stereo not drawn) [Example 15, (7-Chloro-4-methyl-3,4-dihydro-2H-benzo[1,4]oxazin-2ylmethyl)-[3-(5-fluoro-1H-indol-3-yl)-propyl]-amine]
- Ki (human 5-HT1A receptor): 0.0752 µM
- Ki (serotonin transporter; [1]): 44 nM

Compound: Fc1ccc2[nH]cc(CCCNCC3CNc4ccccc4O3)c2c1 (stereo not drawn) [Example 16, (3,4-Dihydro-2H-benzo[1,4]oxazin-2ylmethyl)-[3-(5-fluoro-1H-indol-3-yl)-propyl]-amine]
- Ki (human 5-HT1A receptor): 0.011 µM
- Ki (serotonin transporter; [1]): 16 nM

Compound: COc1ccc2c(c1)OC(CNCCCc1c[nH]c3ccc(F)cc13)CN2 (stereo not drawn) [Example 17]
- Ki (human 5-HT1A receptor): 0.103 µM
- Ki (serotonin transporter; [1]): 15 nM

Compound: Fc1ccc2[nH]cc(CCCNCC3COc4ccccc4N3)c2c1 (stereo not drawn) [Example 20, (3,4-Dihydro-2H-benzo[1,4]oxazin-3-yl-methyl)-[3-(5-fluoro-1H-indol-3-yl)propyl]-amine]
- Ki (human 5-HT1A receptor): 0.0123 µM
